In ChEMBL document CHEMBL5543137, “Design and Synthesis of Novel Ultralong-Acting Peptides as EDP-EBP Interaction Inhibitors for Pulmonary Fibrosis Treatment” (J Med Chem, 2024):
The source made the active and inactive calls. No cut-off for these calls is given here.

Tests used:
[1] = Half-life in Sprague-Dawley rat serum at 600 ug/kg, sc administered as single dose measured upto 10 days by LC-MS/MS method; format: ADME, organism-based; settings: 0.6 mg/kg, dose 600 µg/kg, time < 10 day
[2] = Tmax in Sprague-Dawley rat serum at 600 ug/kg, sc administered as single dose measured upto 10 days by LC-MS/MS method; format: ADME, organism-based; settings: 0.6 mg/kg, dose 600 µg/kg, time < 10 day
[3] = Binding affinity to EBP (unknown origin) by ITC method; set-up: species or system Homo sapiens
[4] = system: Mus musculus; test: Antifibrotic activity against BLM-induced C57BL/6 mouse pulmonary fibrosis model assessed as improvement in lung condition at 30 mg/kg, po administered for 2 weeks starting from 7 days post BLM induction and measured after 21 days post BLM induction; format: functional, organism-based

Molecule | half-life [1] [min] | Tmax [2] [min] | Kd [3] [µM] | Activity [4]
H-VVGSPSAQDEASPL-NH2 | 5.88 | 4.98 | 539 | 
COC(=O)c1ccc2c(c1)NC(=O)/C2=C(\Nc1ccc(N(C)C(=O)CN2CCN(C)CC2)cc1)c1ccccc1 |  |  |  | Active
